Source: patent US7144893B2, “4-aryl quinols and analogs thereof as therapeutic agents” (Cancer Research Technology Limited, priority 2001, dated 2006)

What was measured:
p53 = p53 regulation in cancer cells; format: cell-based; settings: MCF-7 (breast cancer) and HCT 116 (colon cancer)
[1] = system: MCF-7 (wt p53) and MDS 468 (mut p53) (breast cancer); assay: Potency in MCF-7 (wt p53) and MDS 468 (mut p53); format: cell-based
[2] = system: MCF-7 wt and MCF-7/adr (breast cancer); assay: Potency in MCF-7 wt and MCF-7/adr; format: cell-based
[3] = system: human renal tumor xenograft RXF 944LX; assay: In vivo antitumor activity, renal tumor xenograft; settings: for DT (tumor doubling time) / T/C (optimal test/control) / GD (growth delay): 15 mg/kg i.p.
Protocol: Animals. Six to eight weeks old outbred nude mice of NMRI genetic background were used for all experiments. The animals were bred and raised in animal facilities in Freiburg, Germany and housed in Macrolon™ cages. The mice were kept under laminar air flow on natural day light cycles. Diet (Altromin, Lage, Germany) and water were provided ad libitum and room temperature (25+/−2° C.) as well as humidity (60+/−10%) were maintained. The experiments were conducted essentially according to the UKCCCR guidelines under a project license approved by the German Federal Government (Regierungspräsidium Freiburg). The gender of the mice was chosen according to the gender of the patients from which the tumors were originally derived.
Tumors and Data Evaluation. For the experiments, three subcutaneously (s.c.) growing renal human tumor xenograft models from the Freiburg tumor panel were selected (RXF 944LX, RXF 393, and RXF 1220). All renal cell carcinomas were hypernephromas. For the experiments, the latter were engrafted from tumors in serial passage growing s.c. in nude mice. Fragments of approximately 25 mg were implanted s.c. in both flanks of the animals. When the tumors were clearly palpable and had reached a volume of 100–200 mm^3, animals (6–12 tumors) were randomly allocated into treatment groups. Tumor growth was followed twice weekly by serial caliper measurement. Tumor volumes were calculated using the formula length×width^2/2, where length (a) is the largest dimension and width (b) the smallest dimension perpendicular to the length (a×b^2/2) (see, e.g., Geran et al., 1972).
Data evaluation was performed using software by plotting relative tumor volume against time. Relative tumor volumes were calculated for each single tumor by dividing the tumor volume on day X by the tumor volume on day 0 at the time of randomization. Tumor doubling time of test and control groups was defined as the period required to double the initial tumor volume (200%). Growth curves were analyzed in terms of maximal tumor inhibition (treated/control, T/C, calculated as median tumor weight of treated animals divided by median tumor weight of control animals times 100), growth delay (the difference in days to double the initial tumor volume of the test minus the control groups). Median relative tumor volumes of each treatment group were compared to those of the control group. Human tumors growing s.c. in nude mice were treated intraperitoneally (i.p.) with doses of 15 and 10 mg/kg drug either on days 1 and 2; on days 1 and 5; on days 1 and 8; or on days 1, 5 and 8.
The drug doses and treatment schedules used, were determined as being tolerated in non-tumor bearing nude mice prior to initiation of tumor experiments.

apoptotic events = assay: Induction of apoptotic events; format: cell-based; settings: after lag phase (48 h)
cellular glutathione = assay: Cellular glutathione; format: cell-based
[4] = system: human renal tumor xenograft RXF 393; assay: In vivo antitumor activity, renal tumor xenograft; settings: for DT (tumor doubling time) / T/C (optimal test/control): days 1, 5; for GD (growth delay): days 1, 5, difference in days to double initial tumor volume; for BWC (maximal body weight change): days 1, 5, model induces cachexia

SMILES: O=C1C=CC(O)(c2nc3ccccc3s2)C=C1 [Q05, 4-(Benzothiazol-2-yl)-4-hydroxy-2,5-cyclohexadien-1-one]
- effect on p53 (p53): up-regulates p53
- relative potency MCF-7 (wt p53) and MDS 468 (mut p53) [1]: equi-potent
- relative potency MCF-7 wt and MCF-7/adr [2]: equi-potent
- DT (tumor doubling time) ([3]; days 1, 2): 4.1
- T/C (optimal test/control) ([3]; days 1, 2): 27
- GD (growth delay) ([3]; days 1, 2, difference in days to double initial tumor volume): 2.9
- DT (tumor doubling time) ([3]; days 1, 8): 4.2
- T/C (optimal test/control) ([3]; days 1, 8): 43
- GD (growth delay) ([3]; days 1, 8, difference in days to double initial tumor volume): 2.3
- toxic death in treatment group ([3]; FIG. 2, six animals per group): 1/6
- T/C ([3]; FIG. 2, six animals per group, 11–12 tumors per group): 43%
- T/C ([3]; FIG. 3, three animals per group): 27%
- apoptosis induction (apoptotic events): induces apoptotic events
- effect on cellular glutathione (cellular glutathione): depletes cellular glutathione
- DT (tumor doubling time) ([4]; 10 mg/kg i.p.): 3.0
- T/C (optimal test/control) ([4]; 10 mg/kg i.p.): 63
- GD (growth delay) ([4]; 10 mg/kg i.p.): 0.9
- BWC (maximal body weight change) ([4]; 10 mg/kg i.p.): −16
- DT (tumor doubling time) ([4]; 15 mg/kg i.p.): 2.6
- T/C (optimal test/control) ([4]; 15 mg/kg i.p.): 56
- GD (growth delay) ([4]; 15 mg/kg i.p.): 0.5
- BWC (maximal body weight change) ([4]; 15 mg/kg i.p.): −19
